Measured values: patent US6444615B1, “Herbicidal imidazolidinetrione and thioxo-imidazolidinediones” (Dow AgroSciences LLC, priority 2000, dated 2002)

Legend:
Type in all cases: in vivo
Details in all cases: 1200 g/ha, scale of 0-100, 0 no activity, 100 total control, about two or four weeks after application
[1] = system: Hairy Beggarticks (Bidens pilosa); assay: Herbicidal pre-emergence test, Hairy Beggarticks
Description: (§1) Listed below, a typical planting design for the test, consisting of four monocot weeds, four dicot weeds and one sedge weed. [table] For each compound, evaluation tests were carried out according to the following procedures: For preemergence tests, immediately after planting, the test compound was sprayed directly onto the soil surface. The flats or pots were placed in the greenhouse and then watered. For postemergence tests, seeds were allowed to germinate and grow for 10 to 21 days before application. The test plants were selected for uniformity, size and stage of development. The test plants were then treated with the test compound, returned to the greenhouse and watered. Untreated plants were used as a comparison. The compound to be evaluated was dissolved in an appropriate solvent, usually acetone, or a formulation of the evaluated compounds as described above, was added to the water, and sprayed over the flats or pots using a carrier volume equivalent to 187 or 468 liters per hectare to give a rate of application in grams per hectare (g/ha). About two or four weeks after application of the test compounds, the state of the plant was observed. Each species was evaluated on a scale of 0-100 in which 0 equals no activity and 100 equals total control.

[2] = system: Hairy Beggarticks (Bidens pilosa); assay: Herbicidal post-emergence test, Hairy Beggarticks
Description: as §1

[3] = system: Nightshade, (black) (Solanum nigrum); assay: Herbicidal pre-emergence test, Nightshade (black)
Description: as §1

[4] = system: Nightshade, (black) (Solanum nigrum); assay: Herbicidal post-emergence test, Nightshade (black)
Description: as §1

[5] = system: Smartweed, (pale) (Polygonum lapathifolium); assay: Herbicidal pre-emergence test, Smartweed (pale)
Description: as §1

[6] = system: Smartweed, (pale) (Polygonum lapathifolium); assay: Herbicidal post-emergence test, Smartweed (pale)
Description: as §1

[7] = system: Velvetleaf (Abutilon theophrasti); assay: Herbicidal pre-emergence test, Velvetleaf
Description: as §1

[8] = system: Velvetleaf (Abutilon theophrasti); assay: Herbicidal post-emergence test, Velvetleaf
Description: as §1

[9] = system: Barnyardgrass (Echinochloa crusgalli); assay: Herbicidal pre-emergence test, Barnyardgrass
Description: as §1

[10] = system: Barnyardgrass (Echinochloa crusgalli); assay: Herbicidal post-emergence test, Barnyardgrass
Description: as §1

[11] = system: Crabgrass (large) (Digitaria sanguinalis); assay: Herbicidal pre-emergence test, Crabgrass (large)
Description: as §1

[12] = system: Crabgrass (large) (Digitaria sanguinalis); assay: Herbicidal post-emergence test, Crabgrass (large)
Description: as §1

[13] = system: Foxtail, (green) (Setaria viridis); assay: Herbicidal pre-emergence test, Foxtail (green)
Description: as §1

[14] = system: Foxtail, (green) (Setaria viridis); assay: Herbicidal post-emergence test, Foxtail (green)
Description: as §1

[15] = system: Nutsedge, (yellow) (Cyperus esculentus); assay: Herbicidal pre-emergence test, Nutsedge (yellow)
Description: as §1

[16] = system: Nutsedge, (yellow) (Cyperus esculentus); assay: Herbicidal post-emergence test, Nutsedge (yellow)
Description: as §1

[17] = system: Perennial Ryegrass (Lolium perenne); assay: Herbicidal pre-emergence test, Perennial Ryegrass
Description: as §1

[18] = system: Perennial Ryegrass (Lolium perenne); assay: Herbicidal post-emergence test, Perennial Ryegrass
Description: as §1

Row | Compound | Herbicidal Activity BID (pre-emergence) [1] | Herbicidal Activity BID (post-emergence) [2] | Herbicidal Activity NS (pre-emergence) [3] | Herbicidal Activity NS (post-emergence) [4] | Herbicidal Activity SMT (pre-emergence) [5] | Herbicidal Activity SMT (post-emergence) [6] | Herbicidal Activity VEL (pre-emergence) [7] | Herbicidal Activity VEL (post-emergence) [8] | Herbicidal Activity BYG (pre-emergence) [9] | Herbicidal Activity BYG (post-emergence) [10] | Herbicidal Activity CRB (pre-emergence) [11] | Herbicidal Activity CRB (post-emergence) [12] | Herbicidal Activity FOX (pre-emergence) [13] | Herbicidal Activity FOX (post-emergence) [14] | Herbicidal Activity NUT (pre-emergence) [15] | Herbicidal Activity NUT (post-emergence) [16] | Herbicidal Activity RYE (pre-emergence) [17] | Herbicidal Activity RYE (post-emergence) [18]
1 | C#CCOc1cc(N2C(=O)C(=O)N(CCC)C2=O)c(F)cc1Cl [Compound 13] | 100 | 85 | 100/100 | 100/100 | 100 | 95 | 100/100 | 100/100 | 95 | 80 | 100 | 30 | 100 | 60 | 0 | 30 | 60 | 30
2 | COC(=O)c1cc(N2C(=O)C(=O)N(C(C)C)C2=O)c(F)cc1Cl [Compound 18, 1-(2-fluoro-4-chloro-5-methoxycarbonylphenyl)-3-isopropyl-2,4,5-imidazolidinetrione] | 100/100 | 100/100 | 100 | 95 | 40 | 95 | 0 | 95 | 0 | 40 | 0 | 30 | 0 | 60 | 0/0 | 0/0 | 0/0 | 0/0
3 | CCCN1C(=O)C(=O)N(c2cc(F)c(F)cc2F)C1=O [Compound C1, reference compound] | 0 | 40 | 0 | 80 | 0 | 60 | 0 | 60 | 0/0 | 0/0 | 0/0 | 0/0 | 0/0 | 0/0 | 0/0 | 0/0 | 0/0 | 0/0
4 | CCN1C(=O)C(=O)N(c2cc(OC3CCCC3)c(Cl)cc2F)C1=O [Compound 4] | 0 | 85 | 0 | 85 | 0 | 90 | 0 | 100 | 0 | 60 | 0/0 | 0/0 | 0 | 60 | 0/0 | 0/0 | 0/0 | 0/0
5 | O=C1C(=O)N(c2cc(OC3CCCC3)c(Cl)cc2F)C(=O)N1CCCl [Compound 6] | 30 | 0 | 30 | 80 | 30 | 0 | 0/0 | 0/0 | 40/40 | 40/40 | 30 | 0 | 30 | 0 | 0/0 | 0/0 | 0/0 | 0/0
6 | CCOC(=O)COc1cc(N2C(=O)C(=O)N(C)C2=O)c(F)cc1Cl [Compound 17] | 0/0 | 0/0 | 30 | 0 | 30 | 0 | 0/0 | 0/0 | 0/0 | 0/0 | 0/0 | 0/0 | 0/0 | 0/0 | 0/0 | 0/0 | 30 | 0
7 | C#CCN1C(=O)COc2cc(F)c(N3C(=O)C(=O)N(CCC)C3=O)cc21 [Compound 23, 1-n-propyl-3-[7-fluoro-4-(2-propynyl)-2ZH-1,4-benzoxazin-3(4H)-one-6-]-2,4,5-imidazlidinetrione] | 100 | 95 | 100/100 | 100/100 | 100 | 95 | 100/100 | 100/100 | 100 | 60 | 100 | 0 | 100 | 60 | 95 | 40 | 90 | 0
8 | CCCN1C(=O)C(=O)N(c2cc(OC3CCCC3)c(Cl)cc2F)C1=O [Compound 8] | 100 | 95 | 100/100 | 100/100 | 20 | 100 | 100/100 | 100/100 | 0 | 60 | 100 | 40 | 0 | 95 | 0/0 | 0/0 | 0/0 | 0/0
9 | C=CCOc1cc(N2C(=O)C(=O)N(C)C2=O)c(F)cc1Cl [Compound 15] | 0 | 85 | 0 | 85 | 0 | 80 | 0 | 90 | 0 | 30 | 0 | 30 | 0 | 30 | 0/0 | 0/0 | 0/0 | 0/0
